Article PMC3849818 (Journal of medicinal chemistry, 2013)

Tests used:
[1] = 2-methylbenzoxazole undergoes ring opening under acidic conditions; cited from earlier work
orexin 1 (OX1) receptor = target: T1, orexin 1 (OX1) receptor (Homo sapiens, UniProt O43613); test: OX1 calcium mobilization functional assay; type: cell-based; conditions: for OX2/OX1: ratio of Ke values
T1 sequence (O43613 1-425): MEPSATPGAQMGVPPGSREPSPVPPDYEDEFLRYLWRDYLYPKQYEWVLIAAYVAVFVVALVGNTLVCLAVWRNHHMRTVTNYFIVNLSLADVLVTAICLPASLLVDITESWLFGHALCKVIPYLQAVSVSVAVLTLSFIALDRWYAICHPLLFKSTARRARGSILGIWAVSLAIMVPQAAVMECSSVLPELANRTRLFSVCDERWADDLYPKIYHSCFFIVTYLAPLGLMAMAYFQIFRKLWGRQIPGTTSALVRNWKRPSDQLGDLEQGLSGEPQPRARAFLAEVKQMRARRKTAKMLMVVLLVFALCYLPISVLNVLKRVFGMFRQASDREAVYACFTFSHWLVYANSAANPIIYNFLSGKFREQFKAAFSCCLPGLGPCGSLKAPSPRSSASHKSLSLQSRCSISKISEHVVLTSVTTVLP

OX2 receptor = target: T2, OX2 receptor (Homo sapiens, UniProt O43614); test: OX2 calcium mobilization functional assay; type: cell-based
T2 sequence (O43614 1-444): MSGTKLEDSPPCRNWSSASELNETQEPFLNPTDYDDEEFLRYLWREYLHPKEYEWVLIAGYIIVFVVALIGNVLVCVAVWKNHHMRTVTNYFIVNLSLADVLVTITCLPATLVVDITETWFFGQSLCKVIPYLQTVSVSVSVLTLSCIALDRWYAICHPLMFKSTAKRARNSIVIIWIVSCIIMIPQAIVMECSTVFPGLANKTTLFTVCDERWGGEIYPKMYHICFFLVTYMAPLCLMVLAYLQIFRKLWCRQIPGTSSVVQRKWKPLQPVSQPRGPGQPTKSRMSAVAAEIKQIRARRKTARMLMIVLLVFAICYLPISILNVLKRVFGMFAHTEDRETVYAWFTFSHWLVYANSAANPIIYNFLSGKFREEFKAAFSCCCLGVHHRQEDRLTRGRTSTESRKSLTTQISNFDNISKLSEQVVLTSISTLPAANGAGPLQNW

rats [2] = test: Conditioned place preference; type: in vivo, Sprague-Dawley rats
rats [3] = test: Drug discrimination assay; type: in vivo; conditions: 10 min pretreatment, data not shown
OX1 = conditions: read-out: IC50 OX1; cited from earlier work
OX2 = conditions: read-out: IC50 OX2; Actelion high throughput screening hit; cited from earlier work

Row | Compound | OX2/OX1 (orexin 1 (OX1) receptor) | Kd (OX2 receptor) | also measured
1 | Cc1nc2ccc(NC(=O)Nc3ccnc4cccnc34)cc2o1.Cl [Compound 1] | – | – | hydrolytic stability [1]: hydrolytic instability
2 | COc1ccc(CC2c3cc(OC)c(OC)cc3CCN2CC(=O)NCc2cccnc2)cc1OC (stereo not drawn) [Compound 54, 2-{1-[(3,4-dimethoxyphenyl)methyl]-6,7-dimethoxy-1,2,3,4-tetrahydroisoquinolin-2-yl}-N-(pyridin-3-ylmethyl)acetamide] | >65.8 | > 10 µM | –
3 | COc1ccc(CC2c3cc(OC)c(OC)cc3CCN2CC(=O)NCc2ccc(N(C)C)cc2)cc1OC (stereo not drawn) [Compound 56, 2-{1-[(3,4-dimethoxyphenyl)methyl]-6,7-dimethoxy-1,2,3,4-tetrahydroisoquinolin-2-yl}-N-{[4-(dimethylamino)phenyl]methyl}acetamide] | >3.1 | > 10 µM | –
4 | COc1ccc(CC2c3cc(OCC(F)(F)F)c(OC)cc3CCN2CC(=O)NCc2cccnc2)cc1OC (stereo not drawn) [Compound 72, 2-{1-[(3,4-dimethoxyphenyl)methyl]-6-methoxy-7-(2,2,2-trifluoroethoxy)-1,2,3,4-tetrahydroisoquinolin-2-yl}-N-(pyridin-3-ylmethyl)acetamide] | >1180 | > 10 µM | effect on development of place preference induced by cocaine (rats [2]; 20 mg/kg i.p. 10 min before cocaine 10 mg/kg, P < 0.05 vs cocaine): significantly attenuated; CPP produced by compound alone (rats [2]; 20 mg/kg i.p., n=8-9): did not produce CPP or place aversion; behavioral activity in drug discrimination (rats [3]): behaviorally active
5 | COc1ccc(C[C@H]2c3cc(OC)c(OC)cc3CCN2[C@@H](C(=O)NC(C)C)c2ccccc2)cc1OC [ACT-335827, reference compound] | – | – | IC50 (OX1): 0.006 µM
6 | COC(=O)[C@H]1[C@@H](OC(=O)c2ccccc2)C[C@@H]2CC[C@H]1N2C [Cocaine, reference compound] | – | – | CPP produced by drug alone (rats [2]; 10 mg/kg i.p., n=8-9): induced robust and significant CPP
7 | COc1ccc(CC2c3cc(OC)c(OC)cc3CCN2CC(=O)NCc2ccccn2)cc1OC (stereo not drawn) [Compound 53, 2-{1-[(3,4-dimethoxyphenyl)methyl]-6,7-dimethoxy-1,2,3,4-tetrahydroisoquinolin-2-yl}-N-(pyridin-2-ylmethyl)acetamide] | >38.3 | > 10 µM | –
8 | CCCC(=O)Oc1cc2c(cc1OC)CCN(CC(=O)NCc1ccccc1)C2Cc1ccc(OC)c(OC)c1 (stereo not drawn) [Compound 25, 2-[(benzylcarbamoyl)methyl]-1-[(3,4-dimethoxyphenyl)methyl]-6-methoxy-1,2,3,4-tetrahydroisoquinolin-7-yl butanoate] | >127 | > 10 µM | –
9 | COc1ccc(CC2c3cc(OCCCCOc4ccccc4)c(OC)cc3CCN2CC(=O)NCc2ccccc2)cc1OC (stereo not drawn) [Compound 24, N-benzyl-2-{1-[(3,4-dimethoxyphenyl)methyl]-6-methoxy-7-(4-phenoxybutoxy)-1,2,3,4-tetrahydroisoquinolin-2-yl}acetamide] | >230 | > 10 µM | –
10 | COc1ccc(CC2c3cc(OCC(F)(F)F)c(OC)cc3CCN2CC(=O)NCc2ccccc2)cc1OC (stereo not drawn) [Compound 28, N-benzyl-2-{1-[(3,4-dimethoxyphenyl)methyl]-6-methoxy-7-(2,2,2-trifluoroethoxy)-1,2,3,4-tetrahydroisoquinolin-2-yl}acetamide] | >1060 | > 10 µM | selectivity over the OX2 receptor (orexin 1 (OX1) receptor): over 1000 fold
11 | COc1ccc(CC2c3cc(OC)c(OC)cc3CCN2CC(=O)NCc2ccccc2)cc1OC (stereo not drawn) [Compound 6, N-benzyl-2-{1-[(3,4-dimethoxyphenyl)methyl]-6,7-dimethoxy-1,2,3,4-tetrahydroisoquinolin-2-yl}acetamide] | – | > 10 µM | IC50 (OX2): 8.1 µM
12 | CCCOc1cc2c(cc1OC)CCN(CC(=O)NCc1cccnc1)C2Cc1ccc(OC)c(OC)c1 (stereo not drawn) [Compound 70, 2-{1-[(3,4-dimethoxyphenyl)methyl]-6-methoxy-7-propoxy-1,2,3,4-tetrahydroisoquinolin-2-yl}-N-(pyridin-3-ylmethyl)acetamide] | >239 | > 10 µM | –
13 | COc1ccc(CC2c3cc(OS(=O)(=O)C(F)(F)F)c(OC)cc3CCN2CC(=O)NCc2ccccc2)cc1OC (stereo not drawn) [Compound 27, 2-[(benzylcarbamoyl)methyl]-1-[(3,4-dimethoxyphenyl)methyl]-6-methoxy-1,2,3,4-tetrahydroisoquinolin-7-yl trifluoromethanesulfonate] | >1000 | > 10 µM | –
